Patent publication US11224609B2, “Mithramycin derivatives having increased selectivity and anti-cancer activity” (University of Kentucky Research Foundation, priority 2017, dated 2022)

Legend:
NR0B1 mRNA = assay: Relative mRNA expression (qRT-PCR) of NR0B1 in TC-32 cells; format: cell-based; conditions: 6 and 12 h treatments at GI50
Description: TC-32 cells were seeded in 6-well plates at a density of 300,000 cells/well. […] After 6 and 12 h treatments media was removed. Cells were washed with DPBS and 500 μL of 0.05% Trypsin with 0.53 mM EDTA (Corning, Corning, N.Y.) was added. After a 2-3 min incubation, cells detached from the plate and 1 mL of fresh RPMI media was immediately added. Cells were collected in 1.5 mL tubes on ice and centrifuged to a pellet at 1200× g for 5 min. Supernatant was removed and cell pellets were lysed with 600 μL of RLT lysis buffer (Qiagen, Hilden, Germany). Lysates were centrifuged through QIAshredder inserts for complete cell disruption (Qiagen, Hilden, Germany). RNeasy mini spin columns were used to isolate pure RNA (Qiagen, Hilden, Germany). RNA concentrations were measured using NanoDrop 2000 Spectrometer (Thermo Fisher Scientific, Waltham, Mass.) and a 100 ng/μL stock solution was prepared. RNA (1 μg) was used to prepare cDNA with a MultiScribe reverse transcriptase (Thermo Fisher Scientific, Waltham, Mass.). qRT-PCR reactions were conducted using Maxima SYBR green Taq DNA Polymerase (Thermo Fisher Scientific, Waltham, Mass.). EpMotion5070 (Eppendorf, Hamburg, Germany) robot was used to mix reactions in 384 well plates and thermocycling was completed on a QuantStudio 7 Flex (Thermo Fisher Scientific, Waltham, Mass.). […]

[1] = system: NR0B1 promoter (binding promoter of EWS-FLI1); assay: NR0B1 promoter luciferase reporter assay in stably transfected TC-32 cells; format: cell-based; conditions: 12 h treatment
From the text: Full-length NR0B1 promoter sequence was PCR amplified using Q5 high-fidelity DNA polymerase (New England Biolabs, Ipswich, Mass.) from genomic DNA of TC-32 cells and cloned into the pGLUC-Basic 2 vector (New England Biolabs, Ipswich, Mass.). XhoI and KpnI restriction sites were incorporated into the primers. After restriction enzyme (New England Biolabs, Ipswich, Mass.) digest and purification by gel electrophoresis, the target amplicon was ligated into the pGLUC-Basic 2 vector using T4 DNA ligase (Thermo Fisher Scientific, Waltham, Mass.). Chemically competent TOP10 E. coli cells were used to propagate vectors under ampicillin selection (100 μg/mL) (Thermo Fisher Scientific, Waltham, Mass.). The resulting vectors were extracted and purified using GeneJET plasmid prep kit (Thermo Fisher Scientific, Waltham, Mass.). […]
Selected TC-32 cells, expressing either NR0B1 or CMV luciferase reporter vectors, were seeded in clear 96-well plates at a density of 10,000 cells/well. […] Lysates (80 μL) were transferred to a white luminescence plate. Luciferase substrate, either coelenterazine or D-luciferin (50 μL of 1× solution), for NR0B1 or CMV vectors, respectively, was added in a Glomax 96 microplate luminometer (Promega, Madison, Wis.) and luminescence was immediately measured. […] Luminescence results were normalized to cell viability.

[2] = system: TC-32 (Ewing sarcoma, EWS-FLI1 Type 1) cell line; conditions: for TC-32 Ewing sarcoma EWS-FLI1 Type 1 GI50: 72 h growth inhibition, TC-32 cells; for GI50 ratio PC-3:TC-32: selectivity, GI50 in PC-3 over GI50 in TC-32
[3] = system: TC-71 Ewing sarcoma cells (EWS-FLI1 Type 1); conditions: 72 h growth inhibition
[4] = system: VCaP prostate cancer cells (TMPRSS2-ERG); assay: 72 h GI50 assay in VCaP; conditions: for GI50: read-out: VCaP Prostate Cancer TMPRSS2-ERG GI50, 72 h growth inhibition, VCaP cells; for Ratio of median GI50 Prostate cells lacking TMPRSS2-ERG:VCaP: selectivity for VCaP over other prostate cancer cell lines
[5] = system: 5838 Ewing sarcoma cells (EWS-ERG); assay: 72 h GI50 assay in 5838; conditions: for GI50: read-out: 5838 Ewing Sarcoma EWS-ERG GI50, 72 h growth inhibition, 5838 cells; for Ratio of median GI50 Non-Ewing sarcoma cell lines (cf Table 3):5838: selectivity for 5838 cells
[6] = system: ES-8 Ewing sarcoma cells (EWS-FLI1 Type 2); assay: 72 h GI50 assay in ES-8; conditions: read-out: ES-8 EWS-FLI1 Type 2 GI50; 72 h growth inhibition
LNCaP cells = assay: 72 h GI50 assay in LNCaP; conditions: read-out: LNCaP GI50; 72 h growth inhibition
PANC-1 cells = assay: 72 h GI50 assay in PANC-1; conditions: read-out: PANC-1 GI50; 72 h growth inhibition

| Structure (SMILES) | NR0B1 mRNA expression (NR0B1 mRNA) | NR0B1 promoter driven luciferase signal [1] | TC-32 Ewing sarcoma EWS-FLI1 Type 1 GI50 [2] | GI50 ratio PC-3:TC-32 [2] | TC-71 EWS-FLI1 Type 1 GI50 [3] | GI50 [4] | Ratio of median GI50 Prostate cells lacking TMPRSS2-ERG:VCaP [4] | GI50 [5] | Ratio of median GI50 Non-Ewing sarcoma cell lines (cf Table 3):5838 [5] | GI50 [6] | GI50 (LNCaP cells) | GI50 (PANC-1 cells) |
| --- | --- | --- | --- | --- | --- | --- | --- | --- | --- | --- | --- | --- |
| COC(=O)C(Cc1c[nH]c2ccccc12)NC(=O)C(Cc1ccccc1)NC(=O)C(OC)C1Cc2cc3cc(OC4CC(OC5CC(O)C(O)C(C)O5)C(O)C(C)O4)c(C)c(O)c3c(O)c2C(=O)C1OC1CC(OC2CC(OC3CC(C)(O)C(O)C(C)O3)C(O)C(C)O2)C(O)C(C)O1 (stereo not drawn) [Analogue 60, MTMSA-Phe-Trp] | decreased | decreased | 47 nM | 24.0 | 44 nM | 39 nM | 25.4 | 149 nM | 6.7 | 53 nM | 1610 nM | 574 nM |
| COC(=O)C(Cc1c[nH]c2ccccc12)NC(=O)C(Cc1c[nH]c2ccccc12)NC(=O)C(OC)C1Cc2cc3cc(OC4CC(OC5CC(O)C(O)C(C)O5)C(O)C(C)O4)c(C)c(O)c3c(O)c2C(=O)C1OC1CC(OC2CC(OC3CC(C)(O)C(O)C(C)O3)C(O)C(C)O2)C(O)C(C)O1 (stereo not drawn) [Analogue 61, MTMSA-Trp-Trp] | decreased | decreased | 41 nM | 13.9 | 35 nM | 31 nM | 18.3 | 53 nM | 16.2 | 114 nM | 856 nM | 640 nM |
